From patent US20250144050A1, “AMINOTHIOL-CONJUGATES, COMPOSITIONS, AND METHODS OF USE THEREOF” (THE BURLINGTON HC RESEARCH GROUP, INC., priority 2021, published 2025)
Where two headings read alike, the source gives them in different places.

Key:
[1] = mice, cited from earlier work
C3H/10T1/2 cells = settings: 1 milliM; before, during, and after radiation exposure; cited from earlier work
[2] = some in vitro studies; cited from earlier work
[3] = injection at 500-910 mg/m^2; cited from earlier work
Sa-NH sarcoma cells = settings: 50 mg/kg every other day for 6 days; delayed from 12 days; cited from earlier work
[4] = cited from earlier work
angiostatin = settings: cited from earlier work
[5] = 400 mg/kg; 206 cGy gamma rays; female mice; cited from earlier work
mouse splenocytes = settings: cited from earlier work
radiation-induced tumors = settings: WR2721 plus radiation (87% with radiation alone); cited from earlier work
human cancer cell lines = test: CyQUANT cell viability assay, 48-hour exposure, panel averages; settings: for GI50: Homo sapiens, 48 h
Method: After drug treatments, fluorescence readings from 96-well plates were obtained using the CyQUANT dye and compared to standard curves for each cell line to determine cell viability. […] Trypan blue exclusion was used to estimate cell numbers in a few pilot experiments and was thereafter applied to confirm cell death.
A series of experiments was conducted to assess the relative efficacy of 4SP65, 1LP65, and amifostine as single agents in the same human cancer cell lines. First, the effectiveness of 4SP65 was tested against 15 cancer cell lines derived from seven tissues. […] The effectiveness of 0 to ≤500 μM amifostine was tested in sets of cancer cell lines reported to have either medium, high, or no expression of alkaline phosphatase.
Trans. R Soc. Lond. […] Using cell numbers based on fluorescence measurements and standard curves [time zero, (Tz), control growth, (C), and test growth in the presence of drug at five or more concentration levels (Ti)], the percentage growth was calculated at each drug concentration level. The percentage of growth inhibition was calculated as follows:
The LC50/99 was calculated using Equation 2=−50 and Eq. 2=−99, respectively. […] For NHMECs, the relationships between drug exposure levels and fluorescence units were used to define dose-response metrics. The selectivity index (SI) values for individual drug treatments were calculated as IC50 levels in NHMECs divided by the IC50 values in cancer cell lines.

[6] = Children; cited from earlier work
MDA-MB-231 cells = settings: cited from earlier work
metastatic melanoma = settings: patients with advanced malignant melanoma; cited from earlier work
[7] = test system: HMESO-1 malignant mesothelioma cells; assay type: cell-based; settings: HMESO-1; each drug alone; 48 h
Method: (§1) Trypan Blue exclusion was applied as a complementary confirmation probe for cell death.
(§2) Statistical comparisons of differences in individual dose-response metrics between individual/paired drug treatments and various cell lines were conducted using the Student's t-test, with P-values <0.05 considered significant.
(§3) Relative cell growth inhibition values for differing levels each drug alone and in combination were input into SynergyFinder to generated dose-response curves for each drug alone, to produce a dose-response matrix, to visualize the distribution of areas of differing degrees of synergism in a 2-dimension heatmap and 3-dimension volcano plot, and to calculate average and maximum synergy scores in selected human cancer cell lines. […] Synergy scores <10 means that the interaction between two drugs was likely to be antagonistic; scores from −10 to 10 means the interaction between two drugs was likely to be additive; and scores >10 means the interaction between two drugs was likely to be synergistic.

[8] = test system: TOV21G ovarian cancer cells; assay type: cell-based; settings: TOV21G, 48 h
Method: as §1, §2, §3

[9] = test system: PPM-Mill malignant mesothelioma cells; assay type: cell-based; settings: PPM-Mill; each drug alone; 48 h
Method: as §1, §2, §3

[10] = test system: SKOV3 ovarian cancer cells; assay type: cell-based
Method: as §1, §2, §3

NCI-H460 NSCLC cells = assay type: cell-based; settings: NCI-H460; each drug alone; 48 h
Method: as §1, §2, §3

[11] = cited from earlier work; remark: listed apart in the source
H1975 cells = settings: H1975, each drug alone, 48 h
Method: as §1, §2, §3

PC3 cells = settings: cited from earlier work
[12] = each drug alone, 48 h, cisplatin series
[13] = each drug alone, 48 h, gefitinib series

Method for A549 NSCLC cells: as §1, §2, §3

NCCCNCCS [WR1065, 2-(3-aminopropyl)aminoethanethiol]
maximally tolerated dose (MTD) ([1]; i.p.): 432 mg/kg BW
maximally tolerated dose (MTD) ([1]; p.o.): 720 mg/kg BW
protection factor (C3H/10T1/2 cells): 3.23
lowest efficacious concentration [2]: 0.4 µM
peak plasma level [3]: ~100 µM
plasma T1/2 [3]: ~0.167 h

CNCCCNCCCS [WR151326]
protection factor (C3H/10T1/2 cells): 1.8

NCCCNCCSP(=O)(O)O [amifostine]
days for tumors to reach ideal size for amputation (Sa-NH sarcoma cells): 13 days
level with no observable cytotoxicity ([4]; kidney (in vivo)): > 17,000 picomol/10 (6) cells
level with no observable cytotoxicity ([4]; liver (in vivo)): > 7400 picomol/10 (6) cells
level with no observable cytotoxicity ([4]; small intestine (in vivo)): > 3000 picomol/10 (6) cells
change of angiostatin levels (angiostatin; 200 mg/ml (instead of 50 mg/ml)): did not change angiostatin levels
increase of serum angiostatin levels (angiostatin; mouse, in vivo): 4 fold
extension of total life expectancy [5]: 65 days
reduction of cyclophosphamide-induced HPRT mutations (mouse splenocytes): 8 fold
mice developing tumors (radiation-induced tumors): 26%
GI50 (human cancer cell lines; read-out: GI50, range, four of 14 cell lines with moderate/high alkaline phosphatase expression, 48 hours): 47 to 81 µM
GI50 (human cancer cell lines; read-out: GI50, range, seven of 14 cell lines, 48 hours): 113 to 378 µM
GI50 (human cancer cell lines; read-out: exposure failing to induce growth inhibitory effects (GI50), three of 14 cell lines, 48 hours): > 500 µM
exposure without cytolytic effects (LC50/LC99) (human cancer cell lines; any of 14 cell lines, 48 hours): > 500 µM
concentration inducing TGI level effects (human cancer cell lines; only HCC38 and PC3): > 100 µM
single dose with no untoward effects [6]: up to 2700 mg/m2

N.N.[Cl][Pt][Cl] [cisplatin, reference compound]
GI50 (MDA-MB-231 cells): 22.4 µM
reduction in starting cell numbers (A549 NSCLC cells; 6 μM cisplatin alone): 56%
LC99, amount of each drug in combination (A549 NSCLC cells; 4SP65-cisplatin combined, 48 h): 7 µM
GI50 (A549 NSCLC cells; [12]): 3.5 ± 0.7 µM
IC50 (A549 NSCLC cells; [12]): 4.7 ± 0.8 µM
LC99 (A549 NSCLC cells; [12]): 24.4 ± 2.6 µM
TGI (A549 NSCLC cells; [12]): 8.2 ± 1.0 µM
partial response (metastatic melanoma): 10%
GI50 [7]: 3 ± 0.4 µM
IC50 [7]: 8.6 ± 1.1 µM
LC99 [7]: ND (>15) μM
TGI [7]: 6.7 ± 0.7 µM
LC99, amount of each drug in combination ([8]; 4SP65-cisplatin combined): 5.9 µM
GI50 ([8]; each drug alone): 2.2 ± 0.4 µM
IC50 ([8]; each drug alone): 3 ± 0.3 µM
LC99 ([8]; each drug alone): 17.2 µM
TGI ([8]; each drug alone): 6.7 ± 0.3 µM
LC99 ([8]; each drug alone, listed as DDP): 17.2 ± 5.2 µM
GI50 [9]: 27.2 ± 3.4 µM
IC50 [9]: 40.5 ± 8.1 µM
LC99 [9]: ND (>100) μM
TGI [9]: ND (>100) μM
GI50 ([10]; SKOV3, each drug alone, 48 h): 5.3 ± 0.4 µM
IC50 ([10]; SKOV3, each drug alone, 48 h): 6.7 ± 0.6 µM
LC99 ([10]; SKOV3, each drug alone, 48 h): ND (>21) μM
TGI ([10]; SKOV3, each drug alone, 48 h): ND (>21) μM
GI50 (NCI-H460 NSCLC cells): 3.1 ± 0.1 µM
IC50 (NCI-H460 NSCLC cells): 4 ± 0.1 µM
LC99 (NCI-H460 NSCLC cells): ND (>15) μM
TGI (NCI-H460 NSCLC cells): ND (>15) μM

COc1cc2ncnc(Nc3ccc(F)c(Cl)c3)c2cc1OCCCN1CCOCC1 [gefitinib, reference compound]
Cmax ([11]; 250 mg daily, cancer patients, read-out: Cmax plasma concentrations): 500 to 1000 nM
trough levels ([11]; after 3 days of treatment): 0.257 to 4.50 µM
trough levels ([11]; after 8 days of treatment): 0.282 to 6.55 µM
elimination half-life ([11]; in vivo): 48 h
LC99 (A549 NSCLC cells; [13]): ND (>25) μM
TGI (A549 NSCLC cells; [13]): > 25 µM
TGI (A549 NSCLC cells; each drug alone, 48 h, gefitinib series, listed as GEF): ND (>25) μM
LC99 (H1975 cells): ND (>25) μM
TGI (H1975 cells): > 25 µM
TGI (H1975 cells; listed as GEF): ND (>25) μM

CC(=O)O[C@H]1C(=O)[C@@]2(C)[C@H]([C@H](OC(=O)c3ccccc3)[C@]3(O)C[C@H](OC(=O)[C@H](O)[C@@H](NC(=O)c4ccccc4)c4ccccc4)C(C)=C1C3(C)C)[C@]1(OC(C)=O)CO[C@@H]1C[C@@H]2O [paclitaxel, reference compound]
GI50 (PC3 cells): 36.4 µM
fold lower dose than 1LP65 at the GI50 level ([10]; SKOV3 cells): 77 fold
